The NIST ThermoML archive (doi:10.1016/j.jct.2012.11.027)

Assay: xn = mol fraction of the nth substance listed
Details: 101 kPa, Liquid, Linear variable-path acoustic interferometer

C=CC(=O)OC [methyl propenoate] + CCCCCCCCCCO
speed of sound [m/s]
Details	288.15 K	293.15 K	298.15 K	303.15 K	308.15 K	313.15 K	318.15 K
x1 = 0.0762	1388.2	1370.2	1352.1	1333.5	1318.1	1299.5	1284
x1 = 0.1523	1366.7	1348.2	1330.6	1312.1	1295.8	1276.3	1259.4
x1 = 0.2225	1346.9	1328.3	1310.1	1291.2	1275.1	1255.2	1238.1
x1 = 0.3073	1324.4	1304.9	1286.5	1268.1	1251.5	1231.5	1214.4
x1 = 0.3848	1304.7	1285.2	1267	1248.2	1231.2	1211.3	1194.3
x1 = 0.4622	1286.4	1267	1248.9	1230	1212.8	1193.1	1175.6
x1 = 0.5356	1270.8	1251.3	1233	1214.6	1197	1177.4	1160
x1 = 0.6092	1257.7	1238.3	1219.8	1201.2	1183	1163.6	1145.6
x1 = 0.6768	1247.2	1227.9	1209.4	1190.4	1171.8	1152.1	1133.7
x1 = 0.7443	1238.8	1219.3	1200.6	1181.3	1161.9	1141.8	1123.2
x1 = 0.8089	1233.4	1213.4	1193.9	1174.3	1154.1	1134	1114.4
x1 = 0.8736	1229.8	1209.1	1189.2	1169.1	1147.8	1127.2	1106.9
x1 = 0.9412	1227.4	1206.1	1185.6	1164.6	1142.5	1121.4	1100.4
x1 = 1	1226.6	1204.6	1183.6	1162.2	1139.1	1117.8	1095.7

C=CC(=O)OC [methyl propenoate] + CCCCCCCCO
speed of sound [m/s]
Details	288.15 K	293.15 K	298.15 K	303.15 K	308.15 K	313.15 K	318.15 K
x1 = 0.077	1371.5	1352.2	1331.5	1310.8	1292.2	1274.2	1256.8
x1 = 0.1554	1352.2	1331.8	1311.5	1290.9	1271.8	1253.4	1235.1
x1 = 0.2304	1333.7	1313.6	1293.4	1273.1	1253.6	1234.9	1216.4
x1 = 0.3053	1316.3	1296.3	1276	1255.8	1236	1217.5	1198.9
x1 = 0.383	1299.9	1280	1259.7	1239.6	1219.7	1200.9	1182.4
x1 = 0.4603	1285	1265.1	1244.7	1224.5	1204.5	1185.9	1167.5
x1 = 0.5321	1272.6	1252.5	1232.1	1212.1	1192.1	1173.4	1154.8
x1 = 0.6038	1262.4	1242	1221.6	1201.3	1181.1	1162.1	1143.1
x1 = 0.6724	1253.7	1233.3	1212.9	1192.3	1171.7	1152.5	1132.8
x1 = 0.741	1246.5	1225.8	1205.4	1184.7	1163.6	1143.8	1123.6
x1 = 0.8052	1241.4	1220.1	1199.4	1178.5	1156.7	1136.5	1115.7
x1 = 0.8698	1236.3	1214.7	1193.7	1172.5	1150.2	1129.6	1108.3
x1 = 0.935	1231.8	1209.6	1188.3	1166.8	1144.2	1123.1	1101.5
x1 = 1	1226.6	1204.6	1183.6	1162.2	1139.1	1117.8	1095.7

C=CC(=O)OC [methyl propenoate] + CCCCCCO
speed of sound [m/s]
Details	288.15 K	293.15 K	298.15 K	303.15 K	308.15 K	313.15 K	318.15 K
x1 = 0.077	1325.5	1306.4	1290.5	1272	1256.5	1236.3	1216.5
x1 = 0.1542	1311.1	1291.6	1275.3	1256.1	1240.1	1219.7	1199.7
x1 = 0.2299	1297.1	1277.5	1260.7	1241.8	1225.1	1204.8	1185.1
x1 = 0.3057	1284.1	1264.4	1247.4	1228.5	1211.6	1191.6	1171.8
x1 = 0.3834	1272	1252.3	1235.1	1216.4	1199.1	1179.4	1159.6
x1 = 0.4612	1261.7	1242	1224.5	1205.6	1187.9	1168.1	1148.2
x1 = 0.534	1253.5	1233.6	1215.9	1196.7	1178.5	1158.6	1138.4
x1 = 0.6068	1246.6	1226.4	1208.2	1188.7	1169.8	1149.7	1129.3
x1 = 0.672	1241.3	1220.8	1202.2	1182.4	1162.8	1142.4	1121.7
x1 = 0.737	1237.3	1216.6	1197.5	1177.4	1157	1136.3	1115.2
x1 = 0.8046	1233.9	1212.9	1193.4	1172.8	1151.6	1130.6	1109.1
x1 = 0.8722	1231.2	1209.8	1189.8	1168.7	1146.7	1125.4	1103.5
x1 = 0.9361	1229.1	1207.4	1186.7	1165.4	1142.6	1121.2	1099.4
x1 = 1	1226.6	1204.6	1183.6	1162.2	1139.1	1117.8	1095.7
